ChEMBL document CHEMBL1121763, “2,3-Dihydrobenzofuran-2-ones: a new class of highly potent antiinflammatory agents” (J Med Chem, 1981)

How the values were obtained:
Rattus norvegicus [1] = assay: Inhibition of adjuvant-induced polyarthritis in rat following p.o. administration.; format: functional; conditions: po
Rattus norvegicus [2] = species on record: Rattus norvegicus; assay: animal or person; format: functional; conditions: po, 3 h
Description: Compound administered perorally for inhibition of carrageenan induced paw edema after 3h in rat

[3] = target: Cyclooxygenase (Bos taurus)

Compound | IC50 [3] | ED50 (Rattus norvegicus [1]) | ED50 (Rattus norvegicus [2])
COc1ccc2c(c1)c(CC(=O)O)c(C)n2C(=O)c1ccc(Cl)cc1 [INDOMETHACIN] |  | 0.4 mg/kg | 2 mg/kg
CC1C(=O)Oc2cc(C3CCCCC3)ccc21 (configuration not stated) | 400 nM | 2.5 mg/kg | 0.8 mg/kg
O=C1Cc2cc(Cl)c(-c3ccccc3)cc2O1 | 80 nM | 3 mg/kg | 1 mg/kg
Cc1cc2c(cc1C1CCCCC1)OC(=O)C2C (configuration not stated) | 100 nM | < 3 mg/kg | 6 mg/kg
O=C(O)Cc1ccccc1Nc1c(Cl)cccc1Cl [DICLOFENAC] |  | 2 mg/kg | 3 mg/kg
O=C1Cc2cc(Cl)c(C3CCCCC3)c(Cl)c2O1 | 1000 nM | 30 mg/kg | 2 mg/kg
O=C1Cc2ccc(C3CCCCC3)c(Br)c2O1 | 3000 nM | > 30 mg/kg | 36 mg/kg
CC1C(=O)Oc2cc(C3CCCCC3)c(Cl)cc21 (configuration not stated) | 70 nM | 1 mg/kg | 0.3 mg/kg
O=C1Cc2cc(Br)c(C3CCCCC3)cc2O1 | 30 nM | 7 mg/kg | 2 mg/kg
Cc1cc2c(cc1C1CCCCC1)OC(=O)C2 | 100 nM | 1.5 mg/kg | 3 mg/kg
O=C1Cc2cc([N+](=O)[O-])c(C3CCCCC3)cc2O1 | 500 nM | 4 mg/kg | 6 mg/kg
O=C1Cc2cc(Cl)c(C3CCCCC3)cc2O1 [CLOFURAC] | 50 nM | 1 mg/kg | 0.5 mg/kg

More lines, main results first:

IC50 [3] | Compound | ED50 (Rattus norvegicus [1]) | ED50 (Rattus norvegicus [2])
500 nM | CC1C(=O)Oc2cc(-c3ccccc3)ccc21 (configuration not stated) | 14 mg/kg | 2.5 mg/kg
100000 nM | O=C1Cc2cccc(C3CCCCC3)c2O1 | > 30 mg/kg | > 60 mg/kg
80 nM | CC1C(=O)Oc2cc(-c3ccccc3)c(Cl)cc21 (configuration not stated) | 2 mg/kg | 0.3 mg/kg
10000 nM | O=C1Cc2cc(C3CCCCC3)ccc2O1 |  | > 60 mg/kg
10000 nM | O=C1Cc2ccc(C3CCCC3)cc2O1 | 60 mg/kg | 30 mg/kg
800 nM | O=C1Cc2ccc(C3CCCCC3)cc2O1 | 20 mg/kg | 1 mg/kg
50000 nM | CCC1C(=O)Oc2cc(-c3ccccc3)ccc21 (configuration not stated) | > 30 mg/kg | 25 mg/kg
700 nM | O=C1Cc2ccc(-c3ccccc3)cc2O1 | 20 mg/kg | 6 mg/kg
10000 nM | COc1cc2c(cc1-c1ccccc1)OC(=O)C2 | 30 mg/kg | 30 mg/kg
50000 nM | O=C1Cc2cc(O)c(-c3ccccc3)cc2O1 |  | > 30 mg/kg
3000 nM | CC(C)Cc1ccc2c(c1)OC(=O)C2 | > 40 mg/kg | 8 mg/kg
> 100000 nM | O=C1Cc2ccccc2O1 |  | > 60 mg/kg
